Assay results published in article PMC6193938, “Characterization of a novel AICARFT inhibitor which potently elevates ZMP and has anti-tumor activity in murine models” (Scientific Reports, 2018).
Read-outs that look alike come from different tables or passages of the source.

What was measured:
JAK3 = target: T1, JAK3 (Homo sapiens, UniProt P52333); test: CEREP protein kinase assay; assay type: biochemical
T1 construct: purchased CEREP Panlabs (Eurofins)
T1 sequence (P52333 1-1124): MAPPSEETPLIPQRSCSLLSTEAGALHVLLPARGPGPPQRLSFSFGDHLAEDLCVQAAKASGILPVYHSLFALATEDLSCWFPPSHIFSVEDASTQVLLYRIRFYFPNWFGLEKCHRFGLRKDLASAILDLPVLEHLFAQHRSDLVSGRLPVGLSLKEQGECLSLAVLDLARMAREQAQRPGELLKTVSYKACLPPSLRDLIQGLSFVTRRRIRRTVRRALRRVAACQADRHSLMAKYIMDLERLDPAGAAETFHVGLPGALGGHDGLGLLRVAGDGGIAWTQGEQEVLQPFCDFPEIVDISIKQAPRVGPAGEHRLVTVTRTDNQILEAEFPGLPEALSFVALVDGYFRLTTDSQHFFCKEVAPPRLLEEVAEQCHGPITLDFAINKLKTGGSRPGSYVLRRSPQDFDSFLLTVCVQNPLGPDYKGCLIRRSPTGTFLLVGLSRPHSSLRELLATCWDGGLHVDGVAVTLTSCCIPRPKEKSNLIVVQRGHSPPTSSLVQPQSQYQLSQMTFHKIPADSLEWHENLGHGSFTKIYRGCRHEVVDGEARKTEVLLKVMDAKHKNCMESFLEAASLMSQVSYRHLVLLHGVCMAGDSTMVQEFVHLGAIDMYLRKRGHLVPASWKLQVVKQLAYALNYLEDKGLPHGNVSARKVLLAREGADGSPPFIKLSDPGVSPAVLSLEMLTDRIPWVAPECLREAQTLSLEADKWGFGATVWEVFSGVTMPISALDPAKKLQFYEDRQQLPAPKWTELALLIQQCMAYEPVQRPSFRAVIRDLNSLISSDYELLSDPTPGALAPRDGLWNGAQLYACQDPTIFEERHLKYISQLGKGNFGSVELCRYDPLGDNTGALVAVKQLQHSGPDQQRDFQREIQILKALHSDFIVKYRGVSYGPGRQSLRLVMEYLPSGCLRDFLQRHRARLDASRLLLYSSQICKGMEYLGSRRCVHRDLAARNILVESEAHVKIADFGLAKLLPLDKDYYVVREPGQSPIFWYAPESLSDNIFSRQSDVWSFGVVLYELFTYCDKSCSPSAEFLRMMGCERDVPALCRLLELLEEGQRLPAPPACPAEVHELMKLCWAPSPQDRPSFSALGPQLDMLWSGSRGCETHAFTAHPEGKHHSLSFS

PIM1 = target: T2, PIM1 (Homo sapiens, UniProt P11309); test: CEREP protein kinase assay; assay type: biochemical
T2 construct: purchased CEREP Panlabs (Eurofins)
T2 sequence (P11309 whole entry): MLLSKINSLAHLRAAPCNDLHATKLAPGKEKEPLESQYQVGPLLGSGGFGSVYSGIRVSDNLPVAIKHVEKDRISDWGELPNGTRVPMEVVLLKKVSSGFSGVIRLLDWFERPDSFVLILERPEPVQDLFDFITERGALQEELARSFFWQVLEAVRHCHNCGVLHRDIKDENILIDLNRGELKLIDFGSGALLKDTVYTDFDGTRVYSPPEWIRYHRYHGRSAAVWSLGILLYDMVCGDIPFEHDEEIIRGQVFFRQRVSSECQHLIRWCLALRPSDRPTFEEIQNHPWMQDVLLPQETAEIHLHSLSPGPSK

NCI-H460 (lung) = test: MS detection of ZMP in cultured cells; assay type: cell-based, human; conditions: for EC50: 16 hours; for peak intracellular ZMP levels: NCI-H460 cells, calculated with 4 pL cell volume
Protocol: (§1) Cells lines were acquired from cell banks, see supplemental material, grown using the cell banks recommended culture conditions (Supplemental Table 3). In some experiments noted “low folate” the cells were washed and grown in folate free RPMI-1640 media (Gibco #27016-021) supplemented with 5 ml 1 M Hepes, 5 ml 100 mM Na pyruvate, 2.5 mg/ml glucose and 10% defined FBS (Hyclone #SH30070) per 500 mL media for 5–7 days to deplete intracellular folate levels prior to the start of the experiment. Where noted, cells were maintained in complete “high folate” RPMI-1640 media (ATCC #30-2001) with 10% defined FBS to contrast with the low folate conditions.
(§2) ZMP was detected in cultured cells via mass spec analysis. Cells were plated in 96-well plates at 25,000 cells per well in 100 µL with either high or low folate RPMI media and incubated overnight at 37 °C with 5% CO2. Cells were treated with inhibitor compounds for 16 hours, 0.5% DMSO final concentration. Growth media was decanted and cells were lysed for 10 min at room temperature with 50 µL per well of 1x Sure Fire Lysis buffer (Perkin Elmer, SureFire kit component). Aliquots (40 µL) of standard or sample were combined in a deep 96-well plate with 160 µL of internal standard solution containing ^13C5-ZMP (custom synthesis) and ^13C5-AICAr (custom synthesis) at 100 ng/mL in 40 mM ammonium acetate, pH 4. 400 µL of dichloromethane was added to each sample. Samples were sealed, vortexed for 5 minutes, and placed in the refrigerator for at least 30 minutes. The samples were centrifuged at 4 °C for 10 minutes at 16,600 g. 75 µL of the aqueous layer were transferred to a clean 96-well plate and seal prior to analysis.
(§3) The LC-MS method utilizes a Shimadzu Prominence 20 A HPLC system connected to an AB Sciex 5500™ or an AB Sciex 6500™ triple quadrupole mass spectrometer. Extracted samples were separated using a Thermo Hypercarb™ Javelin guard column (2.1 × 20 mm, 5 µm) with an injection volume of 15 µL and a flow rate of 1 mL/minute.
(§4) ZMP, AICAr and dUMP were detected using positive ion TurboIonSpray® multiple reaction monitoring mode and the data were processed with AB Sciex MultiQuant™. Back-calculated ZMP concentrations were fit to a four-parameter logistic equation using ACTIVITYBASE 4.0 to determine EC50 values relative to the maximum observed metabolite levels.

MDA-MB-231 (mammary) = test: MS detection of ZMP in cultured cells; assay type: cell-based, human; conditions: for EC50: Homo sapiens, 16 hours
Protocol: as §1, §2, §3, §4

[1] = test system: AMPK T172 phosphorylation in A9 tumors; test: Western analysis of tumors; assay type: in vivo, mouse; conditions: 100 mg/kg x12 PO

SMILES: O=c1[nH]ccc2cc(F)c(NS(=O)(=O)c3ccc(N4CC[C@@H](O)C4)s3)cc12 [LSN3213128, N-(6-Fluoro-1-oxo-1,2-dihydroisoquinolin-7-yl)-5-[(3R)-3-hydroxypyrrolidin-1-yl]thiophene-2-sulfonamide]
- inhibition at 0.2 µM (JAK3; @ 0.2 uM): -5.81%
- inhibition at 2 µM (JAK3; @ 2 uM): 2.78%
- inhibition at 20 µM (JAK3; @ 20 uM): 28.6%
- inhibition at 0.2 µM (PIM1; @ 0.2 uM): 7.96%
- inhibition at 2 µM (PIM1; @ 2 uM): 13.3%
- inhibition at 20 µM (PIM1; @ 20 uM): 26.5%
- EC50 (NCI-H460 (lung); Homo sapiens, NCI-H460, 16 h, NCI-H460, RPMI media, read-out: ZMP EC50 Regular folate): 438 nM
- EC50 (NCI-H460 (lung); Homo sapiens, NCI-H460, 16 h, NCI-H460, low folate RPMI media, read-out: ZMP EC50 Low folate): 8 nM
- EC50 (NCI-H460 (lung); NCI-H460, RPMI media, read-out: ZMP EC50 Regular folate): 428 ± 102 nM
- dUMP levels in tissue culture (NCI-H460 (lung); NCI-H460, data not shown): does not alter
- peak intracellular ZMP levels (NCI-H460 (lung); low folate media): 540 µM
- peak intracellular ZMP levels (NCI-H460 (lung); regular RPMI): about 2,700 μM
- EC50 (MDA-MB-231 (mammary); RPMI media, read-out: ZMP EC50 Regular folate): 89 nM
- EC50 (MDA-MB-231 (mammary); low folate RPMI media, read-out: ZMP EC50 Low folate): 7.6 nM
- dUMP levels in tissue culture (MDA-MB-231 (mammary); data not shown): does not alter
- AMPK T172 phosphorylation levels in vivo [1]: showed no change
